Entries after “also recorded” stand apart in the source; their conditions may differ.
How the values were obtained:
[1] = tested on: WT HA/WT NA virus; assay type: cell-based, influenza A
[2] = tested on: WT HA/WT NA virus; assay type: cell-based, influenza A; remark: listed apart in the source

## oseltamivir
[1]
  neutralization of infectivity (percent infectivity remaining): resistant to neutralization by oseltamivir; also recorded: uninhibited at all concentrations tested
[2]
  inhibition of agglutination by oseltamivir: uninhibited at all oseltamivir concentrations tested
